{
  "source": "patent US20090246787A1",
  "about": "“METHOD AND APPARATUS FOR DETERMINING CHEMOSENSITIVITY” (SYSMEX CORPORATION, priority 2008, published 2009)",
  "key": {"[1]": {"conditions": "used generally in chemotherapy; cited from earlier work"}, "CDK1 [2]": {"test_system": "CDK1", "conditions": "100 nM doxorubicin, 24 hours"}, "CAMA-1 cells": {"test_system": "CAMA-1 cells", "assay": "MTT living-cell assay, doxorubicin IC50", "type": "cell-based", "conditions": "Homo sapiens, 72 h, cultured 3 days with doxorubicin, MTT method, read-out: IC50 class (chemosensitivity estimated by IC50)", "protocol": "CAMA-1 cells were cultured in 5 vol % CO2 at 37° C., in an Eagle minimum essential medium containing Earle's BSS, 2 mM of L-glutamine, 1.0 mM of sodium pyruvate, 0.1 mM of nonessential amino acids, 1.5 g/L of sodium bicarbonate and 10% by mass of fetal bovine serum.\n(§1) Each of the breast cancer cell lines, that is, HS 578T cells, MDA-MB-435S cells, BT20 cells, CAMA-1 cells, T47D cells, MDA-MB-361 cells, UACC893 cells and BT474 cells, was diluted stepwise to produce 7 serial cell dilutions.\n(§2) The number of living cells in each of the cultures thus obtained was determined by an MTT method of using 3-(4,5-dimethylthiazol-2-yl)-2,5-diphenyl-2H-tetrazolium bromide. The number of living cells to be inoculated was established for each type of cell so as to enable the influence of the drug to be evaluated in the measurement range where the primary correlation between the number of cells in the serial dilution to be inoculated and the determined number of the living cells was kept high.\nThereafter, the number of living cells in each of the cultures thus obtained was measured by the MTT method of using 3-(4,5-dimethylthiazol-2-yl)-2,5-diphenyl-2H-tetrazolium bromide. This measurement was conducted 4 times. […]"}, "BT20 cells": {"test_system": "BT20 cells", "assay": "MTT living-cell assay, doxorubicin IC50", "type": "cell-based", "conditions": "Homo sapiens, BT-20, 72 h, cultured 3 days with doxorubicin, MTT method, read-out: IC50 class (chemosensitivity estimated by IC50)", "protocol": "(§3) Human breast cancer cell lines, that is, HS 578T cells (ATCC HTB-126R), MDA-MB-435s cells (ATCC HTB-129), BT20 cells (ATCC HTB-19), CAMA-1 cells (ATCC HTB-21), T47D cells (ATCC HTB-133), MDA-MB-361 cells (ATCC HTB-27), UACC893 cells (ATCC CRL-1902) and BT474 cells (ATCC HTB-20) were purchased from American Type Culture Collection (ATCC) and cultured under culture conditions recommended by ATCC, as follow.\nBT-20 cells were cultured in 5 vol % CO2 at 37° C., in an Eagle minimum essential medium containing Earle's BSS, 2 mM of L-glutamine, 1.0 mM of sodium pyruvate, 0.1 mM of nonessential amino acids, 1.5 g/L of sodium bicarbonate and 10% by mass of fetal bovine serum. […]\nas §2\n(§4) Thereafter, the number of living cells in each of the cultures thus obtained was measured by the MTT method of using 3-(4,5-dimethylthiazol-2-yl)-2,5-diphenyl-2H-tetrazolium bromide. […]"}, "MDA-MB-435S cells": {"test_system": "MDA-MB-435S cells", "assay": "MTT living-cell assay, doxorubicin IC50", "type": "cell-based", "conditions": "Homo sapiens, 72 h, cultured 3 days with doxorubicin, MTT method, read-out: IC50 class (chemosensitivity estimated by IC50)"}, "MDA-MB-361 cells": {"test_system": "MDA-MB-361 cells", "assay": "MTT living-cell assay, doxorubicin IC50", "type": "cell-based", "conditions": "Homo sapiens, 72 h, cultured 3 days with doxorubicin, MTT method, read-out: IC50 class (chemosensitivity estimated by IC50)"}, "T47D cells": {"test_system": "T47D cells", "assay": "MTT living-cell assay, doxorubicin IC50", "type": "cell-based", "conditions": "Homo sapiens, 72 h, cultured 3 days with doxorubicin, MTT method, read-out: IC50 class (chemosensitivity estimated by IC50)", "protocol": "as §3\nT-47D cells were cultured in 5 vol % CO2 at 37° C., in an RPMI 1640 medium containing 2 mM of L-glutamine, 1.0 mM of HEPES, 1.0 mM of sodium pyruvate, 4.5 g/L of glucose, 1.5 g/L of sodium bicarbonate, 10% by mass of fetal bovine serum and 0.2 unit/mL of bovine insulin. […]\nas §2, §4"}, "HS 578T cells": {"test_system": "HS 578T cells", "assay": "MTT living-cell assay, doxorubicin IC50", "type": "cell-based", "conditions": "Homo sapiens, 72 h, cultured 3 days with doxorubicin, MTT method, read-out: IC50 class (chemosensitivity estimated by IC50)", "protocol": "as §3\nHS 578T cells were cultured in 5 vol % CO2 at 37° C., in a Dulbecco's modified Eagle medium containing 4 mM of L-glutamine, 10% by mass of fetal bovine serum and 0.01 mg/L of bovine insulin, with glucose at a final concentration of 4.5 g/L and sodium bicarbonate at a final concentration of 1.5/L. […]\nas §2, §4"}, "UACC893 cells": {"test_system": "UACC893 cells", "assay": "MTT living-cell assay, doxorubicin IC50", "type": "cell-based", "conditions": "Homo sapiens, UACC-893, 72 h, cultured 3 days with doxorubicin, MTT method, read-out: IC50 class (chemosensitivity estimated by IC50)"}, "CDK1 [3]": {"test_system": "CDK1", "conditions": "100 nM doxorubicin, 24 hours", "remark": "listed apart in the source"}, "BT474 cells": {"test_system": "BT474 cells", "assay": "MTT living-cell assay, doxorubicin IC50", "type": "cell-based", "conditions": "Homo sapiens, BT-474, 72 h, cultured 3 days with doxorubicin, MTT method, read-out: IC50 class (chemosensitivity estimated by IC50)", "protocol": "BT-474 cells were cultured in 5 vol % CO2 at 37° C., in a Dulbecco's modified medium containing 10% by mass of fetal bovine serum.\nas §1, §2\nThereafter, the number of living cells in each of the cultures thus obtained was measured by the MTT method of using 3-(4,5-dimethylthiazol-2-yl)-2,5-diphenyl-2H-tetrazolium bromide. This measurement was conducted 4 times.\nOn the basis of the determined number of living cells, the concentration of doxorubicin (IC50) at which the ratio of the number of living cells in the culture not treated with doxorubicin to the number of living cells in the culture treated with doxorubicin became 50% was determined."}},
  "note": "Like-named read-outs stand apart in the source and are kept apart here.",
  "data": [
    {"smiles": "COc1cccc2c1C(=O)c1c(O)c3c(c(O)c1C2=O)C[C@@](O)(C(=O)CO)C[C@@H]3O[C@H]1C[C@H](N)[C@H](O)[C@H](C)O1", "note": "[doxorubicin]", "values": [
      {"measurement": "effective blood concentration", "setting": "[1]", "value": "about 200 nM"},
      {"measurement": "difference of CDK1 specific activity (not treated − treated with doxorubicin)", "setting": "CDK1 [2]; BT20 cells", "value": "high"},
      {"measurement": "ratio of CDK1 specific activity (treated with doxorubicin / not treated)", "setting": "CDK1 [2]; BT20 cells", "value": "low"},
      {"measurement": "difference of CDK1 specific activity (not treated − treated with doxorubicin)", "setting": "CDK1 [2]; BT474 cells", "value": "a little difference, or a minus difference"},
      {"measurement": "ratio of CDK1 specific activity (treated with doxorubicin / not treated)", "setting": "CDK1 [2]; BT474 cells", "value": "high"},
      {"measurement": "difference of CDK1 specific activity (not treated − treated with doxorubicin)", "setting": "CDK1 [2]; CAMA-1 cells", "value": "high"},
      {"measurement": "ratio of CDK1 specific activity (treated with doxorubicin / not treated)", "setting": "CDK1 [2]; CAMA-1 cells", "value": "low"},
      {"measurement": "difference of CDK1 specific activity (not treated − treated with doxorubicin)", "setting": "CDK1 [2]; HS 578T cells", "value": "high"},
      {"measurement": "ratio of CDK1 specific activity (treated with doxorubicin / not treated)", "setting": "CDK1 [2]; HS 578T cells", "value": "low"},
      {"measurement": "difference of CDK1 specific activity (not treated − treated with doxorubicin)", "setting": "CDK1 [2]; MDA-MB-361 cells", "value": "a little difference, or a minus difference"},
      {"measurement": "ratio of CDK1 specific activity (treated with doxorubicin / not treated)", "setting": "CDK1 [2]; MDA-MB-361 cells", "value": "high"},
      {"measurement": "difference of CDK1 specific activity (not treated − treated with doxorubicin)", "setting": "CDK1 [2]; MDA-MB-435S cells", "value": "high"},
      {"measurement": "ratio of CDK1 specific activity (treated with doxorubicin / not treated)", "setting": "CDK1 [2]; MDA-MB-435S cells", "value": "low"},
      {"measurement": "difference of CDK1 specific activity (not treated − treated with doxorubicin)", "setting": "CDK1 [2]; T47D cells", "value": "a little difference, or a minus difference"},
      {"measurement": "ratio of CDK1 specific activity (treated with doxorubicin / not treated)", "setting": "CDK1 [2]; T47D cells", "value": "high"},
      {"measurement": "difference of CDK1 specific activity (not treated − treated with doxorubicin)", "setting": "CDK1 [2]; UACC893 cells", "value": "a little difference, or a minus difference"},
      {"measurement": "ratio of CDK1 specific activity (treated with doxorubicin / not treated)", "setting": "CDK1 [2]; UACC893 cells", "value": "high"},
      {"measurement": "IC50", "setting": "CAMA-1 cells", "value": "< 200", "unit": "nM"},
      {"measurement": "IC50", "setting": "BT20 cells", "value": "< 200", "unit": "nM"},
      {"measurement": "IC50", "setting": "MDA-MB-435S cells", "value": "< 200", "unit": "nM"},
      {"measurement": "IC50", "setting": "MDA-MB-361 cells", "value": "> 200", "unit": "nM"},
      {"measurement": "IC50", "setting": "T47D cells", "value": "> 200", "unit": "nM"},
      {"measurement": "IC50", "setting": "HS 578T cells", "value": "< 200", "unit": "nM"},
      {"measurement": "IC50", "setting": "UACC893 cells", "value": "> 200", "unit": "nM"},
      {"measurement": "difference of CDK1 activity level (not treated − treated with doxorubicin)", "setting": "CDK1 [3]; BT20 cells", "value": "great difference"},
      {"measurement": "ratio of CDK1 activity level (treated with doxorubicin / not treated)", "setting": "CDK1 [3]; BT20 cells", "value": "low"},
      {"measurement": "difference of CDK1 activity level (not treated − treated with doxorubicin)", "setting": "CDK1 [3]; BT474 cells", "value": "a little difference, or a minus difference"},
      {"measurement": "ratio of CDK1 activity level (treated with doxorubicin / not treated)", "setting": "CDK1 [3]; BT474 cells", "value": "high"},
      {"measurement": "difference of CDK1 activity level (not treated − treated with doxorubicin)", "setting": "CDK1 [3]; CAMA-1 cells", "value": "great difference"},
      {"measurement": "ratio of CDK1 activity level (treated with doxorubicin / not treated)", "setting": "CDK1 [3]; CAMA-1 cells", "value": "low"},
      {"measurement": "difference of CDK1 activity level (not treated − treated with doxorubicin)", "setting": "CDK1 [3]; HS 578T cells", "value": "great difference"},
      {"measurement": "ratio of CDK1 activity level (treated with doxorubicin / not treated)", "setting": "CDK1 [3]; HS 578T cells", "value": "low"},
      {"measurement": "difference of CDK1 activity level (not treated − treated with doxorubicin)", "setting": "CDK1 [3]; MDA-MB-361 cells", "value": "a little difference, or a minus difference"},
      {"measurement": "ratio of CDK1 activity level (treated with doxorubicin / not treated)", "setting": "CDK1 [3]; MDA-MB-361 cells", "value": "high"},
      {"measurement": "difference of CDK1 activity level (not treated − treated with doxorubicin)", "setting": "CDK1 [3]; MDA-MB-435S cells", "value": "great difference"},
      {"measurement": "ratio of CDK1 activity level (treated with doxorubicin / not treated)", "setting": "CDK1 [3]; MDA-MB-435S cells", "value": "low"},
      {"measurement": "difference of CDK1 activity level (not treated − treated with doxorubicin)", "setting": "CDK1 [3]; T47D cells", "value": "a little difference, or a minus difference"},
      {"measurement": "ratio of CDK1 activity level (treated with doxorubicin / not treated)", "setting": "CDK1 [3]; T47D cells", "value": "high"},
      {"measurement": "difference of CDK1 activity level (not treated − treated with doxorubicin)", "setting": "CDK1 [3]; UACC893 cells", "value": "a little difference, or a minus difference"},
      {"measurement": "ratio of CDK1 activity level (treated with doxorubicin / not treated)", "setting": "CDK1 [3]; UACC893 cells", "value": "high"},
      {"measurement": "IC50", "setting": "BT474 cells", "value": "> 200", "unit": "nM"}
    ]}
  ]
}
